Key:
[1] = biological target: T1, Beta-hexosaminidase subunit beta (Homo sapiens, UniProt P07686); assay: Inhibition of human beta hexosaminidase assessed as inhibitory constant using 4-methylumbelliferyl N-acetyl-beta-D-glucosaminide dihydrate as substrate measured every 60 sec for 45 mins by fluorescence spectrophotometry
T1 sequence (P07686 whole entry): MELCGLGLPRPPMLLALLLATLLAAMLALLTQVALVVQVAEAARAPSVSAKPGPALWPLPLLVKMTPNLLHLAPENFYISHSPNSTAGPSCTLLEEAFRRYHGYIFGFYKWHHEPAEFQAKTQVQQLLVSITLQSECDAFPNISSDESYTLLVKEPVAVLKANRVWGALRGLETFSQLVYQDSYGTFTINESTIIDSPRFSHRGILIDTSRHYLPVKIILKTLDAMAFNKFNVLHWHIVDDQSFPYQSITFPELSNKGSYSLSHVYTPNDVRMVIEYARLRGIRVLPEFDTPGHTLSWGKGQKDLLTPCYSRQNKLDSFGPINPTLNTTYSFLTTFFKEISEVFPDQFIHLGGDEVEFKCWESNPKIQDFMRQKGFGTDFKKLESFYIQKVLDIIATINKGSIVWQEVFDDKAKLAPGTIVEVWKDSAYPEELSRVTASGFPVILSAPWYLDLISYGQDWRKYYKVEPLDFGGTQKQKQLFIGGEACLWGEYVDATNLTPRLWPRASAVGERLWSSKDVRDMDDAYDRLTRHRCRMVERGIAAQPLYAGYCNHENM

[2] = AUCN in Wistar Han rat at 3 mg/kg, po; assay type: ADME, organism-based; details: in vivo
[3] = Half life in Wistar Han rat at 2 mg/kg, iv; assay type: ADME, organism-based; details: in vivo
[4] = Oral bioavailability in Wistar Han rat at 3 mg/kg; assay type: ADME, organism-based; details: in vivo
[5] = Clearance in Wistar Han rat at 2 mg/kg, iv; assay type: ADME, organism-based; details: in vivo
[6] = Volume of distribution at steady state in Wistar Han rat at 2 mg/kg, iv or 3 mg/kg, po; assay type: ADME, organism-based; details: in vivo, read-out: Vdss
[7] = biological target: Voltage-gated inwardly rectifying potassium channel KCNH2 (Homo sapiens, UniProt Q12809); assay: Displacement of MK-0499 from human ERG
[8] = biological target: T2, Nuclear receptor subfamily 1 group I member 2 (Homo sapiens, UniProt O75469); assay: Activation of PXR (unknown origin) assessed as CYP3A4 induction
T2 sequence (O75469 whole entry): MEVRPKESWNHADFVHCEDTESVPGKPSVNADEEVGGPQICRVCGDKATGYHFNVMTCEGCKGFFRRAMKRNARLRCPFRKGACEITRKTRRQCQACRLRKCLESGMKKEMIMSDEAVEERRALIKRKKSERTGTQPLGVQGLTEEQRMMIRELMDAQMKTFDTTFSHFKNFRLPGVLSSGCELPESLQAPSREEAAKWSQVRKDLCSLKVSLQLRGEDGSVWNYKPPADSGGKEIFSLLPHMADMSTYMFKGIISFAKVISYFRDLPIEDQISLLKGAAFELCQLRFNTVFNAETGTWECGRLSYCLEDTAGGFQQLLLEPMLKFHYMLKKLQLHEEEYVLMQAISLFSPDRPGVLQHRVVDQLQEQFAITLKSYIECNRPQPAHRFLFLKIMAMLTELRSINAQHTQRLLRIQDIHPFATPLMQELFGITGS

Cytochrome P450 2D6 = Cytochrome P450 2D6 (Homo sapiens, UniProt P10635); assay: Inhibition of CYP2D6 (unknown origin); assay type: ADME
[9] = biological target: Voltage-dependent L-type calcium channel subunit alpha-1C (Homo sapiens, UniProt Q13936); assay: Inhibition of Cav1.2 (unknown origin)
[10] = biological target: Sodium channel protein type 5 subunit alpha (Homo sapiens, UniProt Q14524); assay: Inhibition of Nav1.5 (unknown origin)
Cytochrome P450 2C9 = Cytochrome P450 2C9 (Homo sapiens, UniProt P11712); assay: Inhibition of CYP2C9 (unknown origin); assay type: ADME
Protein O-GlcNAcase [11] = biological target: T3, Protein O-GlcNAcase (Homo sapiens, UniProt O60502); assay: Inhibition of recombinant human OGA
T3 sequence (O60502 whole entry): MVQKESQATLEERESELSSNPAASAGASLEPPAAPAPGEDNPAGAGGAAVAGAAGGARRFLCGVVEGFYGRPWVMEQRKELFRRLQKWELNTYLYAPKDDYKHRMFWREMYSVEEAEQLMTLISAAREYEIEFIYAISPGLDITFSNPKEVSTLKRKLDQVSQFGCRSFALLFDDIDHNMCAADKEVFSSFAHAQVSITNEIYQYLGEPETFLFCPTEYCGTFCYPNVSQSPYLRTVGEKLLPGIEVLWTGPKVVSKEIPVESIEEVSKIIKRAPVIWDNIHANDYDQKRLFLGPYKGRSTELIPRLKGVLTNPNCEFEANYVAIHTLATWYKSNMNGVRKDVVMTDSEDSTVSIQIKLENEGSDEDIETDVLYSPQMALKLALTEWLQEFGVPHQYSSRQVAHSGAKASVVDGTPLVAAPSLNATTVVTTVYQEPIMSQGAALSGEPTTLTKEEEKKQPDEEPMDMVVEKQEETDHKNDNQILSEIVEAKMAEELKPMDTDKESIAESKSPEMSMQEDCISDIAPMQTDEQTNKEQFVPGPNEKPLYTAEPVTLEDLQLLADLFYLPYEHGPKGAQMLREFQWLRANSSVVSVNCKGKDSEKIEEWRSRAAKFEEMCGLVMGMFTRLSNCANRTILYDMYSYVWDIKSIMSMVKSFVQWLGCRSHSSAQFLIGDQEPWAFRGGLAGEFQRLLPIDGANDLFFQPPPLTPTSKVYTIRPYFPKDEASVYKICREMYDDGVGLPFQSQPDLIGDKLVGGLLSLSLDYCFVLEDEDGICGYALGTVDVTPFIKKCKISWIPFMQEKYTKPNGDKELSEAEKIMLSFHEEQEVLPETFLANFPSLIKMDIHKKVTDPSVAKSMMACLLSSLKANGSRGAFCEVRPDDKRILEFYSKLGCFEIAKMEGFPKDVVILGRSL

Cytochrome P450 3A4 = Cytochrome P450 3A4 (Homo sapiens, UniProt P08684); assay: Inhibition of CYP3A4 (unknown origin); assay type: ADME
MDR1 = assay: Apparent permeability in pig LLC-PK1 cells transfected with MDR1; assay type: ADME, cell-based, Sus scrofa
Protein O-GlcNAcase [12] = biological target: T4, Protein O-GlcNAcase (Rattus norvegicus, UniProt Q8VIJ5); assay: Inhibition of OGA in rat PC12 cells assessed as OGlcNAcylated protein level incubated for 24 hrs by ELISA; assay type: cell-based
T4 sequence (Q8VIJ5 whole entry): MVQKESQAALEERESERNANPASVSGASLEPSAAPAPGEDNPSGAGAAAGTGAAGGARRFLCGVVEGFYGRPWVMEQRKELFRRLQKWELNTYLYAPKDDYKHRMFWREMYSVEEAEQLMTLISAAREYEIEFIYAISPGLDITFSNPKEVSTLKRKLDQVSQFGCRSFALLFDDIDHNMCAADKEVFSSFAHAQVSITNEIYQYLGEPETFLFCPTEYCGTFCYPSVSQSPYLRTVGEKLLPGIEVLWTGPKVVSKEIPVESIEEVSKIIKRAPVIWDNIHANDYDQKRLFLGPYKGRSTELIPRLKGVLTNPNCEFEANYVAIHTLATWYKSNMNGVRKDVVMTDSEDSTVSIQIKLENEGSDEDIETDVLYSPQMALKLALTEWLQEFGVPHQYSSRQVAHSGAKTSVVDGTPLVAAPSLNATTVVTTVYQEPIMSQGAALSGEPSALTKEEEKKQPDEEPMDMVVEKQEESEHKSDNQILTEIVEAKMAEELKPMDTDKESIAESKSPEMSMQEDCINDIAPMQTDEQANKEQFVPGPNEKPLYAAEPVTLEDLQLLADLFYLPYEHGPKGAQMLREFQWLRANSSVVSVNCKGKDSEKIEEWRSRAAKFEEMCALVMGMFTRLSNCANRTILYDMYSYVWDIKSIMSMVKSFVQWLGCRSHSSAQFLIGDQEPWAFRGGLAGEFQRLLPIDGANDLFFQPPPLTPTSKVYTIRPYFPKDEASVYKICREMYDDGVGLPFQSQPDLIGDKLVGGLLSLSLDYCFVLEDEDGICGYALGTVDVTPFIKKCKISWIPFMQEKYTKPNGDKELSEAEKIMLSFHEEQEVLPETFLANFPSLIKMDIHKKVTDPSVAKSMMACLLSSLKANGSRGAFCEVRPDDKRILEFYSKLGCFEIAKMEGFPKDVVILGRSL

Chain of Sodium channel protein type 5 subunit alpha (Q14524 whole entry): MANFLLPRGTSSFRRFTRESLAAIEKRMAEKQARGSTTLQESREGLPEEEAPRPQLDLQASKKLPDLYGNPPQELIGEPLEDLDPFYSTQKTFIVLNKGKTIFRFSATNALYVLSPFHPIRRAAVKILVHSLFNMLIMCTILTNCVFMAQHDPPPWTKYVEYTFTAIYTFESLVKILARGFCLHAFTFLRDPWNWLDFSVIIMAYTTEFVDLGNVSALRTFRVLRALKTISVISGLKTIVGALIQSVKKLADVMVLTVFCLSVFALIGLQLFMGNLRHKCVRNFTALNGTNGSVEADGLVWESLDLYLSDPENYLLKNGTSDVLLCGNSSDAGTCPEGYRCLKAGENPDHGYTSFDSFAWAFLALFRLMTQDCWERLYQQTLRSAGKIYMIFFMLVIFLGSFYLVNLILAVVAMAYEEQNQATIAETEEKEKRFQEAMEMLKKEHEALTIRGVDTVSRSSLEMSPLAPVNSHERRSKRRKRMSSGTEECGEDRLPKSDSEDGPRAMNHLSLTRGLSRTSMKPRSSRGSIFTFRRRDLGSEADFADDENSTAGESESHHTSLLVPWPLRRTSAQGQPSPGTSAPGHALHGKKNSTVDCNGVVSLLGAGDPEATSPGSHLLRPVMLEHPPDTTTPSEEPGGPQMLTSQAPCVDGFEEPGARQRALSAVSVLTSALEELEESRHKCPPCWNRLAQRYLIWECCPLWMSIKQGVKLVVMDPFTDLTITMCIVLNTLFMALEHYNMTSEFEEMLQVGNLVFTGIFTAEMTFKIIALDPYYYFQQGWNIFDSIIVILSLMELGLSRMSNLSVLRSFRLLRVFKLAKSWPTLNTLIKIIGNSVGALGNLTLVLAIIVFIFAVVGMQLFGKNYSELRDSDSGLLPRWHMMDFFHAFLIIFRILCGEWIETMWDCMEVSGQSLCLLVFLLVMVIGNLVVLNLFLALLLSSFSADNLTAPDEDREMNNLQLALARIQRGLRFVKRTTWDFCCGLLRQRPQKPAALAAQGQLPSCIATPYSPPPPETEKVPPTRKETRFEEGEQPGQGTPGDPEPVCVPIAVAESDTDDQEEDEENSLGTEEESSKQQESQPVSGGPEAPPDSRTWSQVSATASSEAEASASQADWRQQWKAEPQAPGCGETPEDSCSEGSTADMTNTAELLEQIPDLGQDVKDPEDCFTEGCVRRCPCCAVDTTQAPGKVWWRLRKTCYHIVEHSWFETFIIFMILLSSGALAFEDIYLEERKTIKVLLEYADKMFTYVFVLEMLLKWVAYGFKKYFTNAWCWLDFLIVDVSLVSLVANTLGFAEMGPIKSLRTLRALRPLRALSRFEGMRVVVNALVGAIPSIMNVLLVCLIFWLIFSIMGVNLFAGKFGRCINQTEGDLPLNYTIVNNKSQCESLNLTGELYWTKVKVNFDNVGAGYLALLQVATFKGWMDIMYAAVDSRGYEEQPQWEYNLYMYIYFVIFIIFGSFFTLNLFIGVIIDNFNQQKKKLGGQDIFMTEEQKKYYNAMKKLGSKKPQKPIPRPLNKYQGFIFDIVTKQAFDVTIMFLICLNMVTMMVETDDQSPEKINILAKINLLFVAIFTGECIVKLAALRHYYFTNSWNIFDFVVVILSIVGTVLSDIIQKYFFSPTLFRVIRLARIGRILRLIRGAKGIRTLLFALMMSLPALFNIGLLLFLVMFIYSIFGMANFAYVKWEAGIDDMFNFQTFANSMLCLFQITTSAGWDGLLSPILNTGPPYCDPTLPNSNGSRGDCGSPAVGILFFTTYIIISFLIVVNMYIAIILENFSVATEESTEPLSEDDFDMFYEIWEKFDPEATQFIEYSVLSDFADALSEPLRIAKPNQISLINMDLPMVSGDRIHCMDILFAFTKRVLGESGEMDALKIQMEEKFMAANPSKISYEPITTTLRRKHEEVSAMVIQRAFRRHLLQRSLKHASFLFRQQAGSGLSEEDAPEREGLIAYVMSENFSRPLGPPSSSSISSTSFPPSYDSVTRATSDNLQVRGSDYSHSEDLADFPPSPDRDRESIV
Chain of Cytochrome P450 2C9 (P11712 whole entry): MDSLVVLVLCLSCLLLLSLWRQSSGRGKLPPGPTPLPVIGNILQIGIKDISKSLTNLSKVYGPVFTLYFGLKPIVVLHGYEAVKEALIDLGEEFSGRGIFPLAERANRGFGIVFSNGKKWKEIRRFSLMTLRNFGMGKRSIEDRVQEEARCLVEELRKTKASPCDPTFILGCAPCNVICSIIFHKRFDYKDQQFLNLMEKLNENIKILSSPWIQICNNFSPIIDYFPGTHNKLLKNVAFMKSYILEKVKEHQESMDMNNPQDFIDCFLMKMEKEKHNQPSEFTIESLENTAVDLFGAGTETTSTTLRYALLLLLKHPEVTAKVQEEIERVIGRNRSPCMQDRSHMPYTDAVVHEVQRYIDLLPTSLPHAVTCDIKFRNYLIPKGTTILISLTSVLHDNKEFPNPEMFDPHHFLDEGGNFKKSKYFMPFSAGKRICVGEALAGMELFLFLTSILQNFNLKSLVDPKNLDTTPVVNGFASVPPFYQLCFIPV
Chain of Voltage-gated inwardly rectifying potassium channel KCNH2 (Q12809 whole entry): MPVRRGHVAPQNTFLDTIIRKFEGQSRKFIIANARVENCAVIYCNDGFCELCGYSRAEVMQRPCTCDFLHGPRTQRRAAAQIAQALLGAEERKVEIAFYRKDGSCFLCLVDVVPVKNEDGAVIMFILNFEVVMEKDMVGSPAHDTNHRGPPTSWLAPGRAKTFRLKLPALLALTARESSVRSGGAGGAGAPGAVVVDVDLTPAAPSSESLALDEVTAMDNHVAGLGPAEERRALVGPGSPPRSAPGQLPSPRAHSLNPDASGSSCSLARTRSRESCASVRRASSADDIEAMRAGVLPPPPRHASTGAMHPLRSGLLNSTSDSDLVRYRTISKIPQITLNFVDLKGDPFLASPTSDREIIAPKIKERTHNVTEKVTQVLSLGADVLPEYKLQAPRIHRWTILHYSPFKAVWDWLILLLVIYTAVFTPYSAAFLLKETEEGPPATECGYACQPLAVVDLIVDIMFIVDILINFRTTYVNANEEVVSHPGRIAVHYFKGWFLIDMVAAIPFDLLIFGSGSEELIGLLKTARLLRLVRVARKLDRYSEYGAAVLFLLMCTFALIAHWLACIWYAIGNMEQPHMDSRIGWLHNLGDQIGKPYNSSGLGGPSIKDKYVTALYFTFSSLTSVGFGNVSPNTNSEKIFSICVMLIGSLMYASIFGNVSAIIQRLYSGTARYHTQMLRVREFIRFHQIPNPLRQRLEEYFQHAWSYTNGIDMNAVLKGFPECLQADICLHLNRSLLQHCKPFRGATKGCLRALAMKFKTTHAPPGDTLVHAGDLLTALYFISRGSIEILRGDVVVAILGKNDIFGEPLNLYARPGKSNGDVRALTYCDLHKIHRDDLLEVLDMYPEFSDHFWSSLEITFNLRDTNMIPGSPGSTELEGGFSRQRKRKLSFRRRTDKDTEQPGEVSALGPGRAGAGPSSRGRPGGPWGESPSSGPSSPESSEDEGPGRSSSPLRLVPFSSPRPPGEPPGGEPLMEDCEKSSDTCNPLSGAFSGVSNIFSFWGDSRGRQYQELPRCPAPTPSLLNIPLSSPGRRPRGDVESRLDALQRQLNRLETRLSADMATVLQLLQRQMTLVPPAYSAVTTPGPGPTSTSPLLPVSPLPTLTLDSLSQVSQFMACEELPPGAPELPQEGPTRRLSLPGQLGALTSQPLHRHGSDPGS
Chain of Cytochrome P450 2D6 (P10635 whole entry): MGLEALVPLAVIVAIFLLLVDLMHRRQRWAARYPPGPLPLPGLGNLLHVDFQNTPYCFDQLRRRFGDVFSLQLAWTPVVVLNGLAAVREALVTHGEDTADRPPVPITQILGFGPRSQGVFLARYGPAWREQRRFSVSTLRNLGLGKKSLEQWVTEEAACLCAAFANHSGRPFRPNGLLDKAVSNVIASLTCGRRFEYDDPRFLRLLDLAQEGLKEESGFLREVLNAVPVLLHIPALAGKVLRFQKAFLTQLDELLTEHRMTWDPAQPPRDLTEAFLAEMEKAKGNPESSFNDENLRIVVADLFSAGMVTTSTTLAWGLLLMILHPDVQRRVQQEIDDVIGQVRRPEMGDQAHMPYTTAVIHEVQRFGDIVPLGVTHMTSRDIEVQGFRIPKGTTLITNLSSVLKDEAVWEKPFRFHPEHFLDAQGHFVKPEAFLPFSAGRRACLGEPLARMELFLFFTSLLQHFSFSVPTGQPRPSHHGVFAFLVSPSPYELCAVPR
Chain of Cytochrome P450 3A4 (P08684 whole entry): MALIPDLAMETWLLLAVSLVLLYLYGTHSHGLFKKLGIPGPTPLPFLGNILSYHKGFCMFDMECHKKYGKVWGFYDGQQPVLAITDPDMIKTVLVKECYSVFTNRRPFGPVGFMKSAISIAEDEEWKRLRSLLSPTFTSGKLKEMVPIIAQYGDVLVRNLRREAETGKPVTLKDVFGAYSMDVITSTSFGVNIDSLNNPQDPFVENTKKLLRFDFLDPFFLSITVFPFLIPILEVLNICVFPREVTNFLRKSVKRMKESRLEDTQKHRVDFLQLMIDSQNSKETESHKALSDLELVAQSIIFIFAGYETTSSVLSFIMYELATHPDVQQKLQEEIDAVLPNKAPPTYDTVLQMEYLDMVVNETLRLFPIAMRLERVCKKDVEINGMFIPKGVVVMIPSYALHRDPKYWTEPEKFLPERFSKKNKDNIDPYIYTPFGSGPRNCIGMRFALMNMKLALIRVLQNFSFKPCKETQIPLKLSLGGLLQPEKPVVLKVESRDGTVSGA

CN(C)C1=N[C@@H]2C[C@H](O)[C@@H](CO)O[C@@H]2S1
Ki [1]: > 10 µM | AUC/dose [2]: 2.26 µM·kg·h/mg | half-life [3]: 1.95 h | bioavailability [4]: 80.1% | clearance [5]: 25.7 mL/min/kg | Vd [6]: 2.49 L/kg

CCNC1=N[C@@H]2[C@@H](O)[C@H](O)[C@@H](COC)O[C@@H]2S1
IC50 [7]: > 30 µM | EC50 [8]: > 30 µM | IC50 (Cytochrome P450 2D6): > 50 µM | IC50 [9]: > 30 µM | IC50 [10]: > 30 µM | IC50 (Cytochrome P450 2C9): > 50 µM | Ki (Protein O-GlcNAcase [11]): 0.19 µM | IC50 (Cytochrome P450 3A4): > 50 µM

NC1=N[C@@H]2[C@@H](O)[C@H](O)[C@@H](C(F)F)O[C@@H]2S1
Papp (MDR1): 9.2 ×10⁻⁶ cm/s | EC50 (Protein O-GlcNAcase [12]): 2.4 µM | Ki [1]: > 10 µM | Ki (Protein O-GlcNAcase [11]): 0.76 µM

CCCNC1=N[C@@H]2C[C@H](O)[C@@H](CO)O[C@@H]2S1
Papp (MDR1): 2.5 ×10⁻⁶ cm/s | EC50 (Protein O-GlcNAcase [12]): 0.224 µM | Ki [1]: > 10 µM | Ki (Protein O-GlcNAcase [11]): 0.05 µM

CN(C)C1=N[C@@H]2[C@@H](F)[C@H](O)[C@@H](CO)O[C@@H]2S1
Ki [1]: > 10 µM | Ki (Protein O-GlcNAcase [11]): 0.041 µM

OC[C@H]1O[C@@H]2SC(N3CC[C@@H](F)C3)=N[C@@H]2[C@@H](O)[C@@H]1O
Ki [1]: > 10 µM

O[C@H]1[C@H](O)[C@@H](C(F)F)O[C@@H]2SC(N3CCC3)=N[C@H]12
Papp (MDR1): 18 ×10⁻⁶ cm/s | Ki [1]: > 10 µM | Ki (Protein O-GlcNAcase [11]): 0.026 µM

NC1=N[C@@H]2[C@@H](O)[C@H](O)[C@@H](CF)O[C@@H]2S1
Ki (Protein O-GlcNAcase [11]): 1.2 µM

C=CCNC1=N[C@@H]2[C@@H](O)[C@H](O)[C@@H](CF)O[C@@H]2S1
Ki [1]: > 10 µM | Ki (Protein O-GlcNAcase [11]): 0.18 µM

CN(C)C1=N[C@@H]2C[C@H](O)[C@@H](C(F)F)O[C@@H]2S1
Papp (MDR1): 31 ×10⁻⁶ cm/s | Ki [1]: > 10 µM | Ki (Protein O-GlcNAcase [11]): > 3 µM

CCNC1=N[C@H]2[C@H](O[C@H](CO)C(F)[C@@H]2O)S1 (stereo partly drawn)
IC50 [7]: > 30 µM | Ki [1]: > 10 µM | EC50 [8]: > 30 µM | IC50 (Cytochrome P450 2D6): > 50 µM | IC50 [9]: > 30 µM | IC50 [10]: > 30 µM | IC50 (Cytochrome P450 2C9): > 50 µM | Ki (Protein O-GlcNAcase [11]): > 3 µM | IC50 (Cytochrome P450 3A4): > 50 µM

OC[C@H]1O[C@@H]2SC(N3CCC(F)CC3)=N[C@@H]2[C@@H](O)[C@@H]1O
Ki [1]: > 10 µM | Ki (Protein O-GlcNAcase [11]): > 3 µM

CCNC1=N[C@@H]2[C@@H](O)[C@H](O)[C@@H](C)O[C@@H]2S1
IC50 [7]: > 30 µM | EC50 [8]: > 30 µM | IC50 (Cytochrome P450 2D6): > 50 µM | IC50 [9]: > 30 µM | IC50 [10]: > 30 µM | IC50 (Cytochrome P450 2C9): > 50 µM | Ki (Protein O-GlcNAcase [11]): 0.069 µM | IC50 (Cytochrome P450 3A4): > 50 µM

— ChEMBL document CHEMBL4354805, “Discovery of MK-8719, a Potent O-GlcNAcase Inhibitor as a Potential Treatment for Tauopathies” (J Med Chem, 2019)
